# From US20260116921A1, “PEPTIDE INHIBITORS OF INTERLEUKIN-23 RECEPTOR AND THEIR USE TO TREAT INFLAMMATORY DISEASES” (priority 2018, published 2026)
# Like-named read-outs stand apart in the source and are kept apart here. Bridge positions count the residues as written; N and C are the ends. Square brackets hold non-standard residues; d marks the D form. Trp(4-OMe) = COc1cccc2[nH]cc(C[C@H](N)C(=O)O)c12; Trp(5-Cl) = N[C@@H](Cc1c[nH]c2ccc(Cl)cc12)C(=O)O; AEF = NCCOc1ccc(C[C@H](N)C(=O)O)cc1; αMeL = CC(C)C[C@](C)(N)C(=O)O; Pen = CC(C)(S)[C@H](N)C(=O)O
# T1: IL-23R (Homo sapiens, UniProt Q5VWK5)
# T1 sequence (Q5VWK5 24-629): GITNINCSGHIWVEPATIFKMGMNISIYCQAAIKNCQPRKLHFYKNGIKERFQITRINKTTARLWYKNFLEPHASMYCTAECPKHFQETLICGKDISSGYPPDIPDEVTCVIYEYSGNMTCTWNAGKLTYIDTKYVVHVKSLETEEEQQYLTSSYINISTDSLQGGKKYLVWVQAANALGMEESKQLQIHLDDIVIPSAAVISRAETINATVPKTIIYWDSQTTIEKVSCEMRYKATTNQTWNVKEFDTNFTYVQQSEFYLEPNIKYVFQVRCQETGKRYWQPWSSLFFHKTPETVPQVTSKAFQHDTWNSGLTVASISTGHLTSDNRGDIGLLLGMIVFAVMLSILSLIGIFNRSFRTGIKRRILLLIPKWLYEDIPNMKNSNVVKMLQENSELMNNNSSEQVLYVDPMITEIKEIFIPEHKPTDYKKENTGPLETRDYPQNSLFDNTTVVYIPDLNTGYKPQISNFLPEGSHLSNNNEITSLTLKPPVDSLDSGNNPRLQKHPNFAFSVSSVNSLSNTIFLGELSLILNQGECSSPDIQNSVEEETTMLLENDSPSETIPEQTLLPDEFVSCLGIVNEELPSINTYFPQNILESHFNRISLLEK
# T2: IL-23R (human, UniProt Q5VWK5 24-629)
# T2 sequence (looked up): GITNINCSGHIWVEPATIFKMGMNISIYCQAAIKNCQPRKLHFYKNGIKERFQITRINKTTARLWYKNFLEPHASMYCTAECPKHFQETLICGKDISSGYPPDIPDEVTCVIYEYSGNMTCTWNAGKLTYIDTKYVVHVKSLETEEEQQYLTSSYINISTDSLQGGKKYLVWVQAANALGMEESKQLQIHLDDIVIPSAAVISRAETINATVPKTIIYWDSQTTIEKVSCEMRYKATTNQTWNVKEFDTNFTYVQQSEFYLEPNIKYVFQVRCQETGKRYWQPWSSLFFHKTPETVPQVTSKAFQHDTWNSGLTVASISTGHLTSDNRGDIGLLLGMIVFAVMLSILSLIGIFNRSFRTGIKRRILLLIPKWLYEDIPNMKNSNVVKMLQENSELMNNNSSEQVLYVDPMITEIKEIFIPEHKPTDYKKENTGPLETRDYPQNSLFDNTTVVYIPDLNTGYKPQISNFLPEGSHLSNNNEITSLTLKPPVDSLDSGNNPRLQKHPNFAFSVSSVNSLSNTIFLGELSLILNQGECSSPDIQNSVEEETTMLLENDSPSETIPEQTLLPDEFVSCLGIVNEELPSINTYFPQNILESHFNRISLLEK
# Experiments:
# IL-23R [1] = molecular target: T1, IL-23R; experiment: DB cells IL23R pSTAT3 cell assay (pStat3 HTRF); type: cell-based
# Procedure, shortened: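 DB cells (5×10E5/well, RPMI-1640 + 10% FBS) stimulated with 0.5 nM final IL-23 plus serially diluted test peptides for 30 min at 37 °C, 5% CO2. Phospho-STAT3 (Tyr705) in lysates measured by HTRF using a two-plate protocol.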
# [2] = Stability in simulated gastric fluid (SGF); type: in vitro ADME; settings: pig (pepsin), simulated gastric fluid (SGF) with porcine pepsin, pH=2, 37° C., 20 μM peptide, read-out: SGF t½ (converted)
# Procedure: SGF was prepared by adding 20 mg NaCl, 32 mg porcine pepsin (MP Biochemicals, catalog 02102599), and 70 μl HCl to 10 ml water (final pH=2). Aliquots of SGF (0.5 ml each) were pre-warmed at 37° C. To start the reaction, 1 μl of peptide stock solution (10 mM in DMSO) was added to 0.5 ml SGF and thoroughly mixed such that the final peptide concentration was 20 μM. The reactions were incubated at 37° C. with gentle shaking. At each time point (0, 15, 30, 60 min) 50 μl aliquots were removed and added to 200 ul acetonitrile containing 0.1% formic acid to quench the reaction. Samples are stored at 4° C. until the end of the experiment and centrifuged at 10,000 rpm for 5 minutes. Aliquots of the supernatant were removed, diluted 1:1 into distilled water containing internal standard, and analyzed by LCMS/MS. Percent remaining at each timepoint was calculated based on the peak area response ratio of test to compound to internal standard. Time 0 was set to 100%, and all later timepoints were calculated relative to time 0. Half-lives were calculated by fitting to a first-order exponential decay equation using GraphPad.
# in vitro [3] = type: in vitro ADME; set-up: half-life: dose or concentration left out as unconfirmed; settings: pH 6.8, 37° C., § matrix is 100 fold dilution of standard SIF concentration; for SIF t½: simulated intestinal fluid, pancreatin
# in vitro [4] = settings: human, 20% fecal homogenate (supernatant), anaerobic, pH 6.8
# in vitro [5] = settings: cynomolgus monkey, 20% fecal homogenate (supernatant), anaerobic, pH 6.8
# Procedure: (§1) Fecal homogenate (20%) was prepared by adding 4 mL of growth medium (1 liter contains 2 g peptone water powder, 2 g yeast extract, 0.1 g NaCl, 0.04 g KH2PO4, 0.01 g CaCl2·6H2O, 0.01 g MgSO4·7H2O, 2 mL Tween 80, 0.5 g bile salts, 0.5 g L-cysteine HCl, 2 g NaHCO3, and 10 μL Vitamin K, pH adjusted to 6.8, and sterilized by filtration through a 0.22 μm filter) to every gram of feces (pooled freshly collected human or cynomolgus monkey feces). The suspension was vortexed to break up large clumps, and homogenized using a bead mill homogenizer. Centrifuged the homogenate at 2800×g for 15 min. The supernatant is taken out and used for incubations. DMSO stocks (10 mM) were first prepared for the test compounds. Incubations were performed in an anaerobic chamber conditioned at 37° C. Aliquots of the DMSO solutions were dosed into 1.0 mL aliquots of 20% fecal homogenate, which are pre-warmed to 37° C. The final test compound concentration was 20 μM. At each timepoint (0, 20 min, 1, 3, 6, or 24 hours), 100 μL aliquot of each incubation mixture is taken out and added to separate tubes containing 300 μL of 50% acetonitrile/50% methanol and an internal standard to terminate the reaction. Samples were taken out of the anaerobic chamber and stored at 4° C. until the end of the experiment. After the final timepoint is sampled, the tubes were mixed and then centrifuged at 3,000 rpm for 10 minutes. Aliquots of the supernatant were removed, diluted 1:1 into distilled water containing 0.1% formic acid, and analyzed by LC/MS/MS. Percent remaining at each timepoint was calculated based on the peak area response ratio of test to compound to internal standard. Time 0 was set to 100%, and all later timepoints were calculated relative to time 0. Half-lives were calculated by fitting to a first-order exponential decay equation using Graphpad or Excel.
# NK cells = experiment: NK cell based assay (IL-23/IL-18-induced IFNγ, Quantikine ELISA); settings: human primary NK cells, IL-23 at EC50 to EC75 + IL-18 10 ng/mL, IFNγ after 20 to 24 hours
# Procedure, shortened: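 Human NK cells were negatively selected from healthy-donor peripheral blood and expanded for 7 days in FBS-supplemented RPMI 1640 with IL-2 (25 ng/mL). IFNγ in the supernatant was quantified by ELISA after 20 to 24 hours.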
# in vitro [6] = settings: both, SD, rat, plasma (EDTA)
# Procedure: Peptides of interest (20 μM) were incubated with pre-warmed rat plasma (SD rat, mixed gender pooled, EDTA, filtered through 0.22 μm, BioreclamationIVT) at 37° C. […] Quenched samples were stored at 4° C. until the end of the experiment and centrifuged at 4,000 rpm for 10 minutes. The supernatant were diluted 1:1 with deionized water and analyzed using LC-MS. Percentage remaining at each time point was calculated based on the peak area ratio (analyte over internal standard) relative to the initial level at time zero. Half-lives were calculated by fitting to a first-order exponential decay equation using GraphPad.
# [7] = 20% cynomolgus monkey fecal homogenate, 37° C., 20 μM
# Procedure: as §1
# IL-23R [8] = molecular target: T2, IL-23R; experiment: cell-based or functional assay
# [9] = Table E3, DB cells, IL-23 0.5 nM, 30 minutes at 37° C., read-out: pStat3 HTRF (IC50)
Molecule,IC50 (IL-23R [1]),half-life at 20 μM [2],half-life at 20 μM (in vitro [4]),half-life at 20 μM (in vitro [5]),pStat3 HTRF (nM) IC50 (IL-23R [8]),also measured
COc1cccc2[nH]cc(C[C@@H]3NC(=O)[C@H]([C@@H](C)O)NC(=O)[C@H](CC(N)=O)NC(=O)[C@@H](NC(C)=O)C(C)(C)SSC(C)(C)[C@@H](C(=O)N[C@@H](Cc4ccc(OCCN)cc4)C(=O)N[C@@H](Cc4ccc5ccccc5c4)C(=O)N[C@@](C)(CC(C)C)C(=O)N[C@@H](CCCCNC(C)=O)C(=O)N[C@@H](CC(N)=O)C(=O)N[C@@H](CC(N)=O)C(N)=O)NC(=O)[C@H](CCC(N)=O)NC3=O)c12 [compound 4],1 to 10 nM,9 h,6 h,2 h,–,SIF t½ (in vitro [3]): 24 h
CC(=O)NCCCC[C@H](NC(=O)[C@](C)(CC(C)C)NC(=O)[C@H](Cc1ccc2ccccc2c1)NC(=O)[C@H](Cc1ccc(OCCN)cc1)NC(=O)[C@H]1NC(=O)[C@H](CCC(N)=O)NC(=O)[C@H](Cc2c[nH]c3cc(C)ccc23)NC(=O)[C@H]([C@@H](C)O)NC(=O)[C@H](CC(N)=O)NC(=O)[C@@H](NC(C)=O)C(C)(C)SSC1(C)C)C(=O)N[C@@H](CC(N)=O)C(=O)N[C@@H](CC(N)=O)C(N)=O [compound 5],1 to 10 nM,12 h,6 h,2 h,–,SIF t½ (in vitro [3]): 24 h
CC(=O)NCCCC[C@H](NC(=O)[C@](C)(CC(C)C)NC(=O)[C@H](Cc1ccc2ccccc2c1)NC(=O)[C@H](Cc1ccc(OCCN)cc1)NC(=O)[C@H]1NC(=O)[C@H](CCC(N)=O)NC(=O)[C@H](Cc2c[nH]c3c(C)cccc23)NC(=O)[C@H]([C@@H](C)O)NC(=O)[C@H](CC(N)=O)NC(=O)[C@@H](NC(C)=O)C(C)(C)SSC1(C)C)C(=O)N[C@@H](CC(N)=O)C(=O)N[C@@H](CC(N)=O)C(N)=O [compound 6],< 1 nM,12 h,17 h,4 h,–,IC50 (NK cells): < 10 nM; SIF t½ (in vitro [3]): 24 h; half-life at 20 μM (in vitro [6]): < 1 h
CC(=O)N[C@H]1CCSC[C@@H](C(=O)N[C@@H](Cc2ccc(OCCN)cc2)C(=O)N[C@@H](Cc2ccc3ccccc3c2)C(=O)NC2(C(=O)N[C@@H](CCC(=O)O)C(=O)N[C@@H](CC(N)=O)C(=O)N[C@@H](CC(N)=O)C(N)=O)CCOCC2)NC(=O)[C@H](CCC(N)=O)NC(=O)[C@H](Cc2c[nH]c3c(C)cccc23)NC(=O)[C@H]([C@@H](C)O)NC(=O)[C@H](CCC(N)=O)NC1=O [compound 28],< 1 nM,3 h,1 h,5 h,–,SIF t½ (in vitro [3]): 24 h
CC(=O)NCCCC[C@H](NC(=O)C1(NC(=O)[C@H](Cc2ccc3ccccc3c2)NC(=O)[C@H](Cc2ccc(OCCN)cc2)NC(=O)[C@@H]2CSCC[C@H](NC(=O)[C@@H](CCCNC(=N)N)NC(C)=O)C(=O)N[C@@H](CCC(N)=O)C(=O)N[C@@H]([C@@H](C)O)C(=O)N[C@@H](Cc3c[nH]c4c(C)cccc34)C(=O)N[C@@H](CCC(N)=O)C(=O)N2)CCOCC1)C(=O)N[C@@H](CC(N)=O)C(=O)N[C@@H](CC(N)=O)C(N)=O [compound 29],< 1 nM,1 h,–,–,–,"half-life (in vitro [3]; simulated intestinal fluid (SIF) with pancreatin, read-out: SIF t½ (converted)): 21 h; half-life at 20 μM (in vitro [6]): 3 h"
CC(=O)NCCCC[C@H](NC(=O)[C@](C)(CC(C)C)NC(=O)[C@H](Cc1ccc2ccccc2c1)NC(=O)[C@H](Cc1ccc(OCCN)cc1)NC(=O)[C@H]1NC(=O)[C@H](CCC(N)=O)NC(=O)[C@H](Cc2c[nH]c3c(C)cccc23)NC(=O)[C@H]([C@@H](C)O)NC(=O)[C@H](CC(N)=O)NC(=O)[C@@H](NC(C)=O)C(C)(C)SSC1(C)C)C(=O)N[C@@H](CC(N)=O)C(=O)NCCC(N)=O [compound 201],–,14 h,> 24 h,19 h,–,IC50 (IL-23R [1]; [9]): < 1 nM; IC50 (NK cells): < 10 nM; half-life at 20 μM (in vitro [6]): < 0.3 h
CC(=O)NCCCC[C@H](NC(=O)[C@](C)(CC(C)C)NC(=O)[C@H](Cc1ccc2ccccc2c1)NC(=O)[C@H](Cc1ccc(OCCN)cc1)NC(=O)[C@H]1NC(=O)[C@H](CCC(N)=O)NC(=O)[C@H](Cc2c[nH]c3c(C)cccc23)NC(=O)[C@H]([C@@H](C)O)NC(=O)[C@H](CC(N)=O)NC(=O)[C@@H](NC(C)=O)C(C)(C)SSC1(C)C)C(=O)N[C@@H](CO)C(=O)NCCC(N)=O [compound 221],–,9 h,> 24 h,> 24 h,–,IC50 (IL-23R [1]; [9]): 1 to 10 nM; IC50 (NK cells): < 10 nM; half-life at 20 μM (in vitro [6]): 2 h
CC(=O)NCCCC[C@H](NC(=O)[C@](C)(CCCCN)NC(=O)[C@H](Cc1ccc2ccccc2c1)NC(=O)[C@H](Cc1ccc(OCCN)cc1)NC(=O)[C@H]1NC(=O)[C@H](CCC(N)=O)NC(=O)[C@H](Cc2c[nH]c3c(C)cccc23)NC(=O)[C@H]([C@@H](C)O)NC(=O)[C@H](CC(N)=O)NC(=O)[C@@H](NC(C)=O)C(C)(C)SSC1(C)C)C(=O)N[C@@H](CC(N)=O)C(=O)NCCC(N)=O [compound 267],–,–,–,–,–,IC50 (IL-23R [1]; [9]): < 1 nM; t½: Monkey Feces anaerobic [7]: 4 h
CC(=O)NCCCC[C@H](NC(=O)C1(NC(=O)[C@H](Cc2ccc3ccccc3c2)NC(=O)[C@H](Cc2ccc(OCCN)cc2)NC(=O)[C@H]2NC(=O)[C@H](CCC(N)=O)NC(=O)[C@H](Cc3c[nH]c4c(C)cccc34)NC(=O)[C@H]([C@@H](C)O)NC(=O)[C@H](CC(N)=O)NC(=O)[C@@H](NC(C)=O)C(C)(C)SSC2(C)C)CCNCC1)C(=O)N[C@@H](CC(N)=O)C(=O)NCCC(N)=O [compound 275],–,–,–,–,–,t½: Monkey Feces anaerobic [7]: 8 h
XNTXQXXXXKNN (Ac-[Pen]-NT-[W(5-OMe)]-Gln-[Pen]-[Phe[4-(2-aminoethoxy)]-[2-Nal]-[α-MeLeu]-[Lys(Ac)]-NN-NH2; Pen-Pen disulfide) [SEQ ID NO: 9],–,–,–,–,> 100 nM,–
XNTXQXXXXKNN (Ac-[Pen]-NT-[W(5-OH)]-Gln-[Pen]-[Phe[4-(2-aminoethoxy)]-[2-Nal]-[α-MeLeu]-[Lys(Ac)]-NN-NH2; Pen-Pen disulfide) [SEQ ID NO: 10],–,–,–,–,> 100 nM,–
XNTXQXXXXKNN (Ac-[Pen]-NT-[W(5-Br)]-Gln-[Pen]-[Phe[4-(2-aminoethoxy)]-[2-Nal]-[α-MeLeu]-[Lys(Ac)]-NN-NH2; Pen-Pen disulfide) [SEQ ID NO: 11],–,–,–,–,> 100 nM,–
Ac-[Pen]NTWQ[Pen][AEF][Trp(5-Cl)][αMeL]K(Ac)NN-NH2 (disulfide 1-6; SMILES CC(=O)NCCCC[C@H](NC(=O)[C@](C)(CC(C)C)NC(=O)[C@H](Cc1c[nH]c2ccc(Cl)cc12)NC(=O)[C@H](Cc1ccc(OCCN)cc1)NC(=O)[C@H]1NC(=O)[C@H](CCC(N)=O)NC(=O)[C@H](Cc2c[nH]c3ccccc23)NC(=O)[C@H]([C@@H](C)O)NC(=O)[C@H](CC(N)=O)NC(=O)[C@@H](NC(C)=O)C(C)(C)SSC1(C)C)C(=O)N[C@@H](CC(N)=O)C(=O)N[C@@H](CC(N)=O)C(N)=O) [SEQ ID NO: 12],–,–,–,–,> 100 nM,–
Ac-[Pen]NTWQ[Pen][AEF][Trp(4-OMe)][αMeL]K(Ac)NN-NH2 (disulfide 1-6; SMILES COc1cccc2[nH]cc(C[C@H](NC(=O)[C@H](Cc3ccc(OCCN)cc3)NC(=O)[C@H]3NC(=O)[C@H](CCC(N)=O)NC(=O)[C@H](Cc4c[nH]c5ccccc45)NC(=O)[C@H]([C@@H](C)O)NC(=O)[C@H](CC(N)=O)NC(=O)[C@@H](NC(C)=O)C(C)(C)SSC3(C)C)C(=O)N[C@@](C)(CC(C)C)C(=O)N[C@@H](CCCCNC(C)=O)C(=O)N[C@@H](CC(N)=O)C(=O)N[C@@H](CC(N)=O)C(N)=O)c12) [SEQ ID NO: 15],–,–,–,–,> 100 nM,–
